Results taken from PubChem BioAssay AID2432 (Johns Hopkins Ion Channel Center, 2010).

Target: Potassium voltage-gated channel subfamily KQT member 2 (Rattus norvegicus) (UniProt O88943)
Assay: molecular determinants of KCNQ2 potentiation – cell-based, rat KCNQ2, manual patch clamp, mode of action, mechanism study for KCNQ2 potentiator project, late-stage follow-up (AID 2432)
Settings: HEK293-KCNQ2 manual patch clamp, peak current ratio, at 10 µM; for V1/2: stronger effect = lower value

Sequence of Potassium voltage-gated channel subfamily KQT member 2 (Rattus norvegicus) (O88943 whole entry, looked up): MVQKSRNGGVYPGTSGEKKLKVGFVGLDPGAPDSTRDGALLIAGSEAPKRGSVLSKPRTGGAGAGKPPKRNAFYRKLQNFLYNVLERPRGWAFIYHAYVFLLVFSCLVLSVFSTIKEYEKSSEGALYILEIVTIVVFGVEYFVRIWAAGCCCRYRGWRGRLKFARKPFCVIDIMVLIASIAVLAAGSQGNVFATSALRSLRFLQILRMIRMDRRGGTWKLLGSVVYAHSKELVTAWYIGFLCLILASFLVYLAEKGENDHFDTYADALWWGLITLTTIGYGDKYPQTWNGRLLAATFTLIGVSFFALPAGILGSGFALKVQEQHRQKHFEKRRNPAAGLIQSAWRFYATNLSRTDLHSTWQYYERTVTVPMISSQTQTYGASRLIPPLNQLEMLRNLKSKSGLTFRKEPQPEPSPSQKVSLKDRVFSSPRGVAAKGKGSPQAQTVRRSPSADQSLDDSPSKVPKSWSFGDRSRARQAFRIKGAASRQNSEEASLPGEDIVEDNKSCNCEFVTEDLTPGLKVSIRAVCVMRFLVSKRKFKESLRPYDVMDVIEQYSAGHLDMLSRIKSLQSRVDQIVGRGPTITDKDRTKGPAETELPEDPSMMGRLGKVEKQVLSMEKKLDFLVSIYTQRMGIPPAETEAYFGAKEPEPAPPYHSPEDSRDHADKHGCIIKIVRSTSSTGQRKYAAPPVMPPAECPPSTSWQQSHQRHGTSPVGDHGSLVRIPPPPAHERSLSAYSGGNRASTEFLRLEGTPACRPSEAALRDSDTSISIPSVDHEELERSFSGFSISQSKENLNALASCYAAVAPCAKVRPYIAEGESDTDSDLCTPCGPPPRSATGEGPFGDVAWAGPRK

current ratio I/I0 (stronger effect = higher value): 1.9
V1/2 (measured here: L249A mutant V1/2): -41.8 mV
current ratio I/I0 (measured here: L249A mutant current ratio, stronger effect = higher value): 1.8
V1/2 (measured here: L249A/L275A double mutant V1/2): -9.1 mV
current ratio I/I0 (measured here: L249A/L275A double mutant current ratio, stronger effect = higher value): 2.3
V1/2 (measured here: L275A mutant V1/2): -28.3 mV
current ratio I/I0 (measured here: L275A mutant current ratio, stronger effect = higher value): 1.8
V1/2 (measured here: W236L mutant V1/2): -38.6 mV
current ratio I/I0 (measured here: W236L mutant current ratio, stronger effect = higher value): 1.7
deactivation tau (measured here: WT deactivation time constant, stronger effect = higher value): 172 ms
V1/2 (measured here: WT half-activation voltage with compound): -55.3 mV
Compound: O=C(Nc1ccc(Cl)nc1)c1ccc(F)cc1
